From patent US9968572B2, “Clonidine and GABA compounds in a biodegradable polymer carrier” (Warsaw Orthopedic, Inc., priority 2010, dated 2018)

Tests used:
[1] = test system: Sprague Dawley rats with chronic constriction injury (CCI) of the sciatic nerve; experiment: Mechanical paw withdrawal (allodynia) Von Frey threshold after chronic constriction injury of the sciatic nerve; format: in vivo; details: rat CCI model; gabapentin 90 mg/kg subcutaneous 1 hour prior to each assessment; days 8, 15, 22 post-CCI; vs vehicle (PBS); 2-factor ANOVA, p<0.001
Experimental: (§1) Rats were treated with a subcutaneous human equivalent dose of 885 mcg of gabapentin 1 hour prior to testing.
(§2) Eight Sprague Dawley rats were given a chronic constriction injury (CCI) of the sciatic nerve. The CCI was induced as described by Bennett and Xie (1988). Animals were anesthetized with pentobarbital (60 mg/kg). The right common sciatic nerve was exposed by blunt dissection between the femoral biceps and quadriceps muscle and freed from adherent tissue. Four loose ligatures were placed 1 mm apart using 4-0 chromic gut absorbable sutures. Four animals received a subcutaneous injection of gabapentin (90 mg/kg) 1 hour prior to each post-CCI pain assessment (BP) and four animals received vehicle (PBS) injections. Thermal hyperalgesia paw withdrawal latency response of the injured (rt) limb was measured 2 days before the CCI and on days 7, 14, and 21 post-CCI surgery. This is considered a model of neuropathic pain. FIG. 3 is a bar graph illustration showing that Von Frey withdrawal threshold is increased by gabapentin in rats with an injury to the sciatic nerve.
Mechanical paw withdrawal (allodynia) thresholds of each animal were measured the day before the CCI and on days 8, 15, and 22. FIG. 4 is a bar graph illustration showing that thermal withdrawal latency is increased by gabapentin in rats with an injury to the sciatic nerve. This is considered a model of tactile somatic pain.

[2] = test system: Sprague Dawley rats with chronic constriction injury (CCI) of the sciatic nerve; experiment: Thermal hyperalgesia paw withdrawal latency after chronic constriction injury of the sciatic nerve; format: in vivo; details: rat CCI model; gabapentin 90 mg/kg subcutaneous 1 hour prior to each assessment; days 7, 14, 21 post-CCI; injured (rt) limb; vs vehicle (PBS); 2-factor ANOVA, p<0.0001
Experimental: as §1, §2

In the case of `NCC1(CC(=O)O)CCCCC1` [gabapentin, 2-[1-(aminomethyl)cyclohexyl]acetic acid], the “Von Frey threshold, expressed as a percent of baseline” value [1] was “significantly higher” and the “Thermal withdrawal latency, expressed as a percent of baseline” value [2] was “significantly higher”.
